In ChEMBL document CHEMBL5154896, “Discovery of a Novel Class of d-Amino Acid Oxidase Inhibitors Using the Schrödinger Computational Platform” (J Med Chem, 2022):

How the values were obtained:
D-amino-acid oxidase [1] = target: D-amino-acid oxidase (Mus musculus, UniProt P18894); assay: Inhibition of full length mouse DAO transfected with CHO-K1 cells incubated for 30 mins by Amplex red and horseradish peroxidase based fluorescence assay; format: cell-based
D-amino-acid oxidase [2] = target: T1, D-amino-acid oxidase (Homo sapiens, UniProt P14920); assay: Inhibition of recombinant full length human DAO preincubated with compound for 20 mins measured after 4 hrs by Amplex red and horseradish peroxidase based fluorescence assay
D-amino-acid oxidase [3] = target: T1, D-amino-acid oxidase; assay: Inhibition of full length human DAO transfected in CHO-K1 cells incubated for 30 mins by Amplex red and horseradish peroxidase based fluorescence assay; format: cell-based
[4] = Unbound drug concentration in C57Bl/6 mouse brain at 2 mg/kg, po or 0.5 mg/kg,iv by LC-MS-MS analysis; format: ADME, organism-based; conditions: mouse, in vivo, po, 2 mg/kg, BLD = below limit of detection
[5] = Apparent permeability across apical to basolateral membrane in MDCK-MDR1 cells by LC-MS/MS analysis; conditions: dog
[6] = Volume of distribution at steady state in C57/BL6 mouse at 2 mg/kg, po or 0.5 mg/kg,iv by LC-MS-MS analysis; format: ADME, organism-based; conditions: in vivo
[7] = Dose normalized AUC in C57/BL6 mouse at 2 mg/kg, po by LC-MS-MS analysis; format: ADME, organism-based; conditions: in vivo
[8] = Oral bioavailability in C57/BL6 mouse at 2 mg/kg by LC-MS-MS analysis; format: ADME, organism-based; conditions: in vivo
[9] = Brain to plasma permeability coefficient, Kp in C57Bl/6 mouse 2 mg/kg, po or 0.5 mg/kg,iv by LC-MS-MS analysis; format: ADME, organism-based; conditions: mouse, brain, po, 2 mg/kg, BLD = below limit of detection
[10] = Unbound drug concentration in C57Bl/6 mouse plasma at 2 mg/kg, po or 0.5 mg/kg,iv by LC-MS-MS analysis; format: ADME, organism-based; conditions: mouse, in vivo, po, 2 mg/kg, BLD = below limit of detection
[11] = Unbound brain-to-plasma concentration ratio in C57Bl/6 mouse at 2 mg/kg, po or 0.5 mg/kg,iv by LC-MS-MS analysis; format: ADME, organism-based; conditions: mouse, brain, po, 2 mg/kg, BLD = below limit of detection
[12] = Efflux ratio of apparent permeability across basolateral to apical side over apical to basolateral side in MDCK-MDR1 cells; conditions: dog

T1 sequence (P14920 whole entry): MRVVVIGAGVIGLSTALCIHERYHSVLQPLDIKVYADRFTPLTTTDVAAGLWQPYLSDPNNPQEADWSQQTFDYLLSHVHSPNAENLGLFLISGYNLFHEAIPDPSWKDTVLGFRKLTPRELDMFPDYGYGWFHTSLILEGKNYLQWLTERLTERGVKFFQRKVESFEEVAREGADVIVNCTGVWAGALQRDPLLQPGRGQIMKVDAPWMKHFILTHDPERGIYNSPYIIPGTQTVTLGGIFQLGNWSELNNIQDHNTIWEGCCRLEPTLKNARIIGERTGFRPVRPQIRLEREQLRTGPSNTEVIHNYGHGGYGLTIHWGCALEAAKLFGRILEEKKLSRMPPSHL
D-amino-acid oxidase (Mus musculus, UniProt P18894), sequence (P18894 whole entry): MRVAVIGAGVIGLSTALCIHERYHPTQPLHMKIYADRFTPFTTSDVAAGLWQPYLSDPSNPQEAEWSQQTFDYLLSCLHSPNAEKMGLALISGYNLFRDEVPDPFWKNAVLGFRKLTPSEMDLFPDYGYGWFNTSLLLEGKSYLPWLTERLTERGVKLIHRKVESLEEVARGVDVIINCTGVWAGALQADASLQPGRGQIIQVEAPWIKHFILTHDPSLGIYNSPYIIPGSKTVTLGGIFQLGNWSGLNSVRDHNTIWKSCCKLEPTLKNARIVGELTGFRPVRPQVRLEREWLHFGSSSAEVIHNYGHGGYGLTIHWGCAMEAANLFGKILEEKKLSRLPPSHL

EC50 (D-amino-acid oxidase [1]) | IC50 (D-amino-acid oxidase [2]) | EC50 (D-amino-acid oxidase [3]) | SMILES | other results
250 nM | – | – | CC1(c2c[nH]c(=O)c(=O)[nH]2)COc2ccccc2S1 (racemic) | –
– | 340 nM | – | O=c1[nH]cc(CCc2ccccc2)[nH]c1=O | Papp A→B [5]: 4 ×10⁻⁶ cm/s; efflux ratio [12]: 0.4
790 nM | 80 nM | 710 nM | O=c1[nH]cc(CSc2ccc(S(F)(F)(F)(F)F)cc2)[nH]c1=O | –
1400 nM | 87 nM | 1100 nM | O=c1[nH]cc(CSc2cnc3cc(Cl)ccc3c2)[nH]c1=O | –
– | 3300 nM | – | O=c1[nH]cc(Cc2ccc(Cl)cc2)[nH]c1=O | –
780 nM | 20 nM | 630 nM | N#Cc1ccc2c(c1)OC[C@@H](c1c[nH]c(=O)c(=O)[nH]1)S2 | Papp A→B [5]: 3.1 ×10⁻⁶ cm/s; efflux ratio [12]: 3.1
– | 6200 nM | – | O=c1[nH]cc(CCc2ccccc2Cl)[nH]c1=O | –
120 nM | 20 nM | 240 nM | C[C@@]1(c2c[nH]c(=O)c(=O)[nH]2)COc2cc(C#N)ccc2S1 | –
– | 580 nM | 8400 nM | O=c1[nH]cc(CCc2ccc3ncccc3c2)[nH]c1=O | –
– | 320 nM | – | COc1ccc(CCc2c[nH]c(=O)c(=O)[nH]2)cc1 | –
390 nM | 130 nM | 680 nM | O=c1[nH]cc(CSc2ccc(Cl)cc2)[nH]c1=O | –
– | 1500 nM | 500 nM | O=c1[nH]c(Cl)c(CCc2ccc(C(F)(F)F)cc2)[nH]c1=O | –
– | 300 nM | 810 nM | O=c1[nH]cc(SCc2ccc(F)c(F)c2)[nH]c1=O | –
260 nM | – | – | C[C@@]1(c2c[nH]c(=O)c(=O)[nH]2)COc2cc(C(F)(F)F)ccc2S1 | –
310 nM | 43 nM | 250 nM | N#Cc1ccc(CSc2c[nH]c(=O)c(=O)[nH]2)cc1 | –
340 nM | 250 nM | 540 nM | N#Cc1[nH]c(=O)c(=O)[nH]c1CCc1ccc(C(F)(F)F)cc1 | –
540 nM | 90 nM | 440 nM | CS(=O)(=O)c1ccc(CSc2c[nH]c(=O)c(=O)[nH]2)cc1 | –
– | 670 nM | 8200 nM | O=c1[nH]cc(CCc2ccc(OC(F)F)nc2)[nH]c1=O | –
970 nM | 46 nM | 440 nM | N#Cc1ccc(SCc2c[nH]c(=O)c(=O)[nH]2)cc1F | –
540 nM | 94 nM | 560 nM | O=c1[nH]cc([C@@H]2COc3cc(F)ccc3S2)[nH]c1=O | –
430 nM | 25 nM | 290 nM | O=c1[nH]cc(C2COc3cc(C(F)(F)F)ccc3S2)[nH]c1=O (stereo not drawn) | –
1500 nM | 5800 nM | 1800 nM | N#Cc1ccc(CCc2c[nH]c(=O)c(=O)[nH]2)cc1 | Papp A→B [5]: 3 ×10⁻⁶ cm/s; efflux ratio [12]: 0.6
680 nM | – | – | N#Cc1ccc(CSc2c[nH]c(=O)c(=O)[nH]2)cc1F | –
– | 3900 nM | – | Cc1[nH]c(=O)c(=O)[nH]c1CCc1ccc(C(F)(F)F)cc1 | Papp A→B [5]: 4.8 ×10⁻⁶ cm/s; efflux ratio [12]: 2.4
500 nM | – | – | O=c1[nH]cc(SCc2ccc(S(F)(F)(F)(F)F)cc2)[nH]c1=O | –

Second part, the compound before the results:

SMILES | EC50 (D-amino-acid oxidase [1]) | IC50 (D-amino-acid oxidase [2]) | EC50 (D-amino-acid oxidase [3]) | other results
O=c1[nH]cc([C@@H]2COc3cc(C(F)F)ccc3S2)[nH]c1=O | 290 nM | – | – | –
CS(=O)(=O)c1ccc2c(c1)OC[C@@H](c1c[nH]c(=O)c(=O)[nH]1)S2 | 1200 nM | 25 nM | 270 nM | –
O=c1[nH]c(=O)n(O)cc1CCc1ccc(Cl)cc1 | – | – | – | Fu [4]: Bld; Papp A→B [5]: 24 ×10⁻⁶ cm/s; Vdss [6]: 1.9 L/kg; AUC/dose [7]: 13.6 ng·h/mL; bioavailability [8]: 9%; Kp [9]: Bld; Fu [10]: Bld; K(p,uu,brain) [11]: Bld
O=c1[nH]cc([C@@H]2COc3cc(Cl)ccc3S2)[nH]c1=O | 220 nM | 21 nM | 140 nM | –
O=c1[nH]cc(CCc2ccc(-c3cc(O)n[nH]3)c(F)c2)[nH]c1=O | 1800 nM | 320 nM | 2900 nM | Papp A→B [5]: 21 ×10⁻⁶ cm/s; efflux ratio [12]: 0.1
O=c1[nH]cc(SCc2ccc(C(F)F)cc2)[nH]c1=O | 590 nM | 70 nM | 450 nM | –
N#Cc1ccc(CCc2c[nH]c(=O)c(=O)[nH]2)cc1F | – | 180 nM | 1900 nM | Papp A→B [5]: 3.3 ×10⁻⁶ cm/s; efflux ratio [12]: 0.5
N#Cc1ccc(SCc2c[nH]c(=O)c(=O)[nH]2)cc1Cl | 560 nM | – | – | –
C[C@@]1(c2c[nH]c(=O)c(=O)[nH]2)COc2cc(Cl)ccc2S1 | 100 nM | – | – | –
O=c1[nH]cc(CCc2cc(Cl)cc(Cl)c2)[nH]c1=O | – | 2500 nM | – | –
O=c1[nH]cc(SCc2ccc(C(F)(F)F)cc2)[nH]c1=O | 240 nM | – | – | –
O=c1[nH]nc(Cc2ccc(Cl)cc2)cc1O | 4.2 nM | – | – | –
O=c1[nH]c(=O)n(O)cc1CCc1ccccc1 | – | – | – | Papp A→B [5]: 15 ×10⁻⁶ cm/s
O=c1[nH]cc(CCc2ccc(Cl)cc2)[nH]c1=O | – | 320 nM | – | –
O=c1[nH]cc(CCc2cccc(Cl)c2)[nH]c1=O | – | 190 nM | 3500 nM | Papp A→B [5]: 6.8 ×10⁻⁶ cm/s; efflux ratio [12]: 0.9
Cc1n[nH]c2cc(CCc3c[nH]c(=O)c(=O)[nH]3)ccc12 | 4300 nM | 640 nM | – | –
C[C@@]1(c2c[nH]c(=O)c(=O)[nH]2)COc2cc(S(C)(=O)=O)ccc2S1 | 1500 nM | 51 nM | 390 nM | –
CS(=O)(=O)c1ccc(SCc2c[nH]c(=O)c(=O)[nH]2)cc1 | 2300 nM | – | – | –
O=c1[nH]cc(SCc2ccc(C(F)(F)F)nc2)[nH]c1=O | 590 nM | 250 nM | 1100 nM | Papp A→B [5]: 2.4 ×10⁻⁶ cm/s; efflux ratio [12]: 0.4
O=c1[nH]cc(C2COc3ccccc3S2)[nH]c1=O (racemic) | 720 nM | 406 nM | 1760 nM | –
N#Cc1cccc(CSc2c[nH]c(=O)c(=O)[nH]2)c1 | – | 440 nM | 3800 nM | –
O=c1[nH]cc(SCc2ccc(Cl)cc2)[nH]c1=O | 510 nM | 150 nM | 400 nM | –
